Reference: PubChem BioAssay (NCI)
Values joined by “and” are separate entries in the source; they are usually repeats but may differ in a detail not shown here. Identical values can stand only once.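 Assay format: 96-well plates, 48-hour exposure. The concentration for 50% growth inhibition is given as GI50. TGI is the concentration that stops growth completely.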

Tests used:
Test in all cases: growth of human tumour cells (NCI), 48 h
DLD-1 colon = test system: DLD-1 colon
DMS 114 small cell lung = test system: DMS 114 small cell lung
HCT-15 colon = test system: HCT-15 colon
HL-60(TB) leukemia = test system: HL-60(TB) leukemia
HOP-18 NSCLC = test system: HOP-18 NSCLC
HOP-92 NSCLC = test system: HOP-92 NSCLC
HS 578T breast = test system: HS 578T breast
K-562 leukemia = test system: K-562 leukemia
M19-MEL melanoma = test system: M19-MEL melanoma
MCF7 breast = test system: MCF7 breast
SK-MEL-28 melanoma = test system: SK-MEL-28 melanoma
SNB-78 CNS = test system: SNB-78 CNS
XF 498 CNS = test system: XF 498 CNS

CCCCCCCCCCCC1CCCC(C)N1 (stereo not drawn)
TGI (DLD-1 colon): 83.4 µM
TGI (DMS 114 small cell lung): 139 µM
GI50 (HCT-15 colon): 2.85 µM
TGI (HCT-15 colon): 13.3 µM and 104 µM
GI50 (HL-60(TB) leukemia): 1.15 µM
TGI (HOP-18 NSCLC): 169 µM
GI50 (HOP-92 NSCLC): 6.67 µM
TGI (HOP-92 NSCLC): 31.8 µM and 90.2 µM
GI50 (HS 578T breast): 8.6 µM
TGI (HS 578T breast): 26.2 µM
GI50 (K-562 leukemia): 1.96 µM
TGI (M19-MEL melanoma): 130 µM
GI50 (MCF7 breast): 3.24 µM
GI50 (SK-MEL-28 melanoma): 13.6 µM
TGI (SK-MEL-28 melanoma): 28.2 µM and 152 µM
TGI (SNB-78 CNS): 174 µM
TGI (XF 498 CNS): 95.3 µM

CCc1cccc(C(C)C)c1N1C(=O)C(=O)C(c2nc3ccccc3s2)C(=O)C1=O
TGI (DLD-1 colon): > 50 µM
TGI (DMS 114 small cell lung): > 50 µM
TGI (HCT-15 colon): > 50 µM
TGI (HL-60(TB) leukemia): 30.9 µM
TGI (HOP-18 NSCLC): > 50 µM
TGI (HOP-92 NSCLC): > 50 µM
TGI (K-562 leukemia): > 50 µM
TGI (M19-MEL melanoma): > 50 µM
TGI (SK-MEL-28 melanoma): > 50 µM
TGI (SNB-78 CNS): > 50 µM
TGI (XF 498 CNS): > 50 µM
